Tests used:
[1] = test system: mice fattened on a high fat/high sucrose diet (HF/HS); assay: Blood parameters: plasma lipids (total cholesterol, LDL, HDL, TG, FFA); format: in vivo; conditions: TZD 10 mg/kg/day; for HDL / Total cholesterol: (3 W***)
Description: (§1) We used adult mice (aged 6 weeks) of masculine gender fattened on a high fat/high sucrose diet (HF/HS). Feeding with the HF/HS diet began on mice aged 6 weeks and continued throughout the period of the study. The study was conducted along 2 axes: • prevention: the product was administered as soon as feeding began with the HF/HS diet; • management (curative): the product was administered 12 weeks after the start of the HF/HS diet. Total treatment time (preventive and curative): 23 weeks.
(§2) Each experimental group comprised 10 mice.
(§3) Subsequently the following were analysed: lipoprotein profile (by size exclusion chromatography); apolipoportein A1; lipid composition of the liver (liver triglycerides, cholesterol and free fatty acids); histological analysis of the liver and adipose tissue; staining of accumulated lipids in the liver.
(§4) The different cholesterol blood levels and different fractions were analysed using a HPLC method.

ACO (target PPARα) = assay: Liver mRNA expression, real-time Q-RT-PCR: ACO; format: in vivo; conditions: TZD; AV102 (0.25%); 5 mice per group
Description: (§5) In the liver, the mRNA expressions of 8 genes were determined in 5 mice of each group using real-time Q-RT-PCR analysis.

[2] = test system: mice fattened on a high fat/high sucrose diet (HF/HS); assay: Blood glucose and insulin analysis; format: in vivo; conditions: TZD 10 mg/kg/day
Description: as §1, §2, §3

[3] = test system: PGC-1 (mitochondria biogenesis); assay: Muscle/BAT mRNA expression: PGC-1; format: in vivo, mice; conditions: TZD, AV102 (0.25%)
Description: In the brown adipose tissue (BAT) and in the muscles, the mRNA expression of 3 genes was determined in 5 mice of each group by real-time Q-RTR-PCR analysis.

[4] = test system: mice fattened on a high fat/high sucrose diet (HF/HS); assay: Intra Peritoneal Insulin Sensitive Test (IPIST); format: in vivo; conditions: preventive; TZD 10 mg/kg/day; (3 W***)
Excerpt: Diabetics suffer from an increase in insulin resistance which leads to hyperglycaemia.

CYP7A1 = assay: Liver mRNA expression, real-time Q-RT-PCR: CYP7A1; format: in vivo, mice; conditions: TZD; AV102 (0.25%)
Description: as §5

[5] = test system: mice fattened on a high fat/high sucrose diet (HF/HS); assay: Food intake and weight gain of mice on HF/HS diet; format: in vivo; conditions: curative; TZD 10 mg/kg/dy
Description: as §1, §2

[6] = test system: mice fattened on a high fat/high sucrose diet (HF/HS); assay: Plasma lipoprotein profile (size exclusion chromatography); format: in vivo; conditions: TZD
Description: as §1, §2, §3, §4

PEPCK (target PPARγ) = assay: Liver mRNA expression, real-time Q-RT-PCR: PEPCK; format: in vivo, mice; conditions: TZD; AV102 (0.25%)
Description: as §5

[7] = test system: mice fattened on a high fat/high sucrose diet (HF/HS); assay: Hepatic metabolism: transaminases and alkaline phosphatase (liver toxicity); format: in vivo; conditions: TZD and AV102 groups; considered very moderate, does not appear to reflect liver toxicity
[8] = test system: ME, FAS, ACC (fatty acid synthesis); assay: Liver mRNA expression, real-time Q-RT-PCR: ME, FAS, ACC; format: in vivo, mice; conditions: TZD; AV102 (0.25%)
Description: as §5

## CN(CCOc1ccc(CC2SC(=O)NC2=O)cc1)c1ccccn1 (stereo not drawn) [TZD, Rosiglitazone]
[1]; curative
  LDL: reduction
  TG (Triglycerides): No change
  HDL: reduction
  Total cholesterol: reduction
[1]; preventive
  LDL: downward trend
  TG (Triglycerides): significantly reduced
  HDL: significant reduction
  Total cholesterol: significant reduction
ACO (target PPARα)
  ACO (target PPARα) mRNA in the liver: ↑
[2]; curative, (3 W**)
  GLUCOSE (blood): dropped considerably and ↓↓
[2]; preventive
  GLUCOSE (blood): ↓
  INSULIN (blood): ↓
[3]
  PGC-1 (mitochondria biogenesis) mRNA in muscle/BAT: ↑ (muscle)
[4]
  IPIST (insulin sensitivity test): ↓↓
CYP7A1
  CYP7A1 (conversion oxysterol into biliary acids) mRNA in the liver: ↑↑
[5]
  Mouse wt.: did not cause the overweight mice to lose weight
[6]; curative, after 3 weeks' treatment
  Fractions of HDL and VLDL cholesterol (lipoprotein profiles): reduction
[6]; preventive, weeks 8 and 15
  HDL, LDL and VLDL cholesterol fractions (plasma lipoprotein profiles): reduction
PEPCK (target PPARγ)
  PEPCK (target PPARγ) mRNA in the liver: ↑
[7]
  Plasma ALP: increase
[8]
  ME, FAS, ACC (fatty acid synthesis) mRNA in the liver: ↑↑
